According to US12544325B2, “Compositions and related methods” (Colgate-Palmolive Company, priority 2020, dated 2026):

Assays:
[1] = background statement; cited from earlier work
[2] = Dissolution of amine fluoride in water with addition of alkali salts
Excerpt: Similar formulations are created also containing one or more alkali salts, selected from sodium chloride, potassium chloride and trisodium citrate dihydrate to investigate the effect of the salts' presence on solubility of the amine fluoride.

[3] = Dissolution of amine fluoride in water without additional salts (saturation concentration); conditions: no salts
Method: Amine fluoride is added in increasingly greater amounts to determine its saturation concentration, shown below in Table 1A.

[4] = Dissolution of tertiary amine in water without inorganic salts, with or without HCl; format: physicochemical
Excerpt: Similar compositions were created as those listed in Table 1A, but instead of amine fluoride, a tertiary amine was used.

[5] = Dissolution of tertiary amine with HCl and sodium fluoride, without and with sodium chloride; format: physicochemical; conditions: hydrochloric acid, sodium fluoride and alkali salt added; compared to absence of additional inorganic salts
Excerpt: A new batch of solutions was created similar to those shown in Table 2B, but with the addition of sodium fluoride.

[6] = Dissolution of tertiary amine with HCl and addition of alkali salts; format: physicochemical
Method: Further compositions containing the tertiary amine and hydrochloric acid were created. To these solutions, various quantities of alkali salts were added to evaluate the effect on solubility of the tertiary amine.

[7] = when adding sodium chloride (composition 10)
[8] = with hydrochloric acid and about 5% alkali salt (composition 34)

lowest concentration of sodium chloride shown to increase solubility of amine fluoride in water ([2]; sodium chloride) | solubility of amine fluoride in water [2, 7] | solubility of amine fluoride in water as concentration of tertiary amine [2, 7] | maximum solubility of amine fluoride in water [3] | maximum solubility of amine fluoride in water as concentration of tertiary amine ([3]; amine fluoride fully dissociated from hydrofluoride) | solubility of tertiary amine as concentration ([4]; with hydrochloric acid corresponding to hydronium level of equivalent amine fluoride) | solubility of tertiary amine ([4]; with hydrochloric acid corresponding to hydronium level of equivalent amine fluoride (compositions 21-23)) | solubility of the tertiary amine in water ([4]; without adjustment of pH) | solubility of the tertiary amine in water as concentration ([4]; without adjustment of pH) | change of solubility of the tertiary amine [5] | minimum addition of Sodium Chloride to fully dissolve 34% of tertiary amine ([6]; with hydrochloric acid) | solubility of tertiary amine in water [6, 8] | solubility of tertiary amine in water as concentration [6, 8] | SMILES | aqueous solubility [1]
about 0.7% | above 35 % by weight | about 640 mM | approximately 24 % by weight | about 440 mM | – | – | – | – | – | – | – | – | CCCCCCCCCCCCCCCCCCN(CCO)CCCN(CCO)CCO.F.F [amine fluoride, N′-octadecyltrimethylendiamine-N,N,N′-tris(2-ethanol)-dihydrofluoride] | very low aqueous solubility
– | – | – | – | – | about 530 mM | above 24% | about 70 % by weight | about 1520 mM | not increased any further | about 1% | about 40 % by weight | about 870 mM | CCCCCCCCCCCCCCCCCCN(CCO)CCCN(CCO)CCO [tertiary amine, N′-octadecyltrimethylendiamine-N,N,N′-tris(2-ethanol)] | –
